Reference: US8541588B2, “Sulfonamide derivatives” (Pfizer Limited, priority 2009, dated 2013)

What follows are compounds tested against T1, Nav1.7 (or SCN9A) channel; HEK cells stably transfected with hSCN9A (Homo sapiens, UniProt Q15858) (assay: Nav1.7 block, PatchXpress 7000 automated whole-cell voltage clamp, estimated IC50 (EIC50)). Conditions: PatchXpress platform; hSCN9A HEK cells held at V1/2 of inactivation; estimated IC50.
T1 construct: expressed in transfected cells
Assay type: cell-based

T1 sequence (Q15858 whole entry): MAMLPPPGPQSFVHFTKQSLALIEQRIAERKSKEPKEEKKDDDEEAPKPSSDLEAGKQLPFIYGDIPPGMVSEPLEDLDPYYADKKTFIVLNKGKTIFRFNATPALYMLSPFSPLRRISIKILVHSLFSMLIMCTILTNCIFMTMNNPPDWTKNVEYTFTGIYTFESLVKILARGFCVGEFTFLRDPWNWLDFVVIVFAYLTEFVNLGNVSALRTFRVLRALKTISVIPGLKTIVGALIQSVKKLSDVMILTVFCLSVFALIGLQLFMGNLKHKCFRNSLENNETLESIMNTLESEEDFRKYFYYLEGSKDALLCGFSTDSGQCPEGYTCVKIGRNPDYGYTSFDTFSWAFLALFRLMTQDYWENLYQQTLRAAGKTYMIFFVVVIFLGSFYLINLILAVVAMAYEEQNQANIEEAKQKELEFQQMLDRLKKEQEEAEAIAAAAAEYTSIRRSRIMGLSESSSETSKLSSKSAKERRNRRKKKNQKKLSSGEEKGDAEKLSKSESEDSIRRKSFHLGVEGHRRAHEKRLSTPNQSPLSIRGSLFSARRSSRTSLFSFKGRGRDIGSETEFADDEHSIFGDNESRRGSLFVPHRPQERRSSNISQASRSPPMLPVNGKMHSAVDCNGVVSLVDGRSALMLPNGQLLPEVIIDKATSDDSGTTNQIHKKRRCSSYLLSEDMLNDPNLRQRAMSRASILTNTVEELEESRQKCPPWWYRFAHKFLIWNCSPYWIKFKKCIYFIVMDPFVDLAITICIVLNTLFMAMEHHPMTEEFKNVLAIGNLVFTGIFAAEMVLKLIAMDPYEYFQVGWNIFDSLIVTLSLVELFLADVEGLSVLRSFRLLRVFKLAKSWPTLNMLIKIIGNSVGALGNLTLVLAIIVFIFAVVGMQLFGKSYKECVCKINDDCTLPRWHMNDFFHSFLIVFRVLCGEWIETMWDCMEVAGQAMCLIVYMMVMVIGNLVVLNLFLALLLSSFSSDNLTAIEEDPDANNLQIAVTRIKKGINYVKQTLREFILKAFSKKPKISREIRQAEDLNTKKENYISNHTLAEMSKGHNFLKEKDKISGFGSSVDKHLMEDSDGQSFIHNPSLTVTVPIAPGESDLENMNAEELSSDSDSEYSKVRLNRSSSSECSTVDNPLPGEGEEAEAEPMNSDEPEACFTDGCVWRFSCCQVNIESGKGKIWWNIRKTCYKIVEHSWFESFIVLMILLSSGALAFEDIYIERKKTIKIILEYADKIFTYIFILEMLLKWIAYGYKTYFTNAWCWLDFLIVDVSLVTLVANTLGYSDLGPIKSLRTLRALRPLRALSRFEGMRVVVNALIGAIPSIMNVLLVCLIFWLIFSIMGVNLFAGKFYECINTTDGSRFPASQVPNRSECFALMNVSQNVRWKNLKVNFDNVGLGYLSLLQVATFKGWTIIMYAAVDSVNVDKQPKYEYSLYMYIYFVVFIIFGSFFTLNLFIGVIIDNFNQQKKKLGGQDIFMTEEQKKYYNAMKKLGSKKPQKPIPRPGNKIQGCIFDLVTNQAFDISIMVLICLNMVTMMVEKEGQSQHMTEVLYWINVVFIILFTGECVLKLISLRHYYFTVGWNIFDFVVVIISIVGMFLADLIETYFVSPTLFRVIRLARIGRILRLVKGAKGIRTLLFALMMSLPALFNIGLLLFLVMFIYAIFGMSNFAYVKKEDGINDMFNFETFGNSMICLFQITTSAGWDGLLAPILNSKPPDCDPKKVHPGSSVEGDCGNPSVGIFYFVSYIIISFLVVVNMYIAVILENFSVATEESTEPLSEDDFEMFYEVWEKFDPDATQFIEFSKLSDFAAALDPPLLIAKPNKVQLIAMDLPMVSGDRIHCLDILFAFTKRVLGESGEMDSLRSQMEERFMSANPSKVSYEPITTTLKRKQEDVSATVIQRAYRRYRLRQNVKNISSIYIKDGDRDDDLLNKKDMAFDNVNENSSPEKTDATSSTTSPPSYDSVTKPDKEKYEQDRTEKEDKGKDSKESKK

IC50 | SMILES
720 nM | CCc1ccc(Oc2ccc(S(=O)(=O)Nc3ncns3)cc2C#N)c(-c2ccccc2)n1 [Example 19, 3-cyano-4-[(6-ethyl-2-phenylpyridin-3-yl)oxy]-N-1,2,4-thiadiazol-5-ylbenzenesulfonamide]
510 nM | CC(C)(C)n1nccc1-c1cc(F)ccc1Oc1ccc(S(=O)(=O)Nc2nccs2)cc1F [Example 217, 4-(2-(1-tert-butyl-1H-pyrazol-5-yl)-4-fluorophenoxy)-3-fluoro-N-(thiazol-2-yl)benzenesulfonamide]

The remaining lines, values behind:

SMILES | IC50
Cc1cc(S(=O)(=O)Nc2nccs2)ccc1Oc1ccccc1-c1ccccc1 [Example 258, 4-(biphenyl-2-yloxy)-3-methyl-N-1,3-thiazol-2-ylbenzenesulfonamide] | 1020 nM
CC(C)(C)n1nc(Cc2ccc(Cl)cc2)cc1Oc1ccc(S(=O)(=O)Nc2nccs2)cc1F [Example 240, 4-[2-tert-butyl-5-(4-chloro-benzyl)-2H-pyrazol-3-yloxy]-3-fluoro-N-thiazol-2-yl-benzenesulfonamide] | 1980 nM

Same assay, conditions: estimated IC50; hSCN9A HEK cells, PatchXpress platform; Examples 283-814

IC50 | SMILES
32 nM | Cn1nc(C(F)(F)F)cc1-c1ccc(Oc2ccc(S(=O)(=O)Nc3nccs3)cc2C#N)c(Cl)c1 [Example 335, 4-{2-chloro-4-[1-methyl-3-(trifluoromethyl)-1H-pyrazol-5-yl]phenoxy}-3-cyano-N-1,3-thiazol-2-ylbenzenesulfonamide]
120 nM | Cn1nccc1-c1cc(Cl)ccc1Oc1ccc(S(=O)(=O)Nc2ccc(F)cn2)cc1Cl [Example 745, 3-chloro-4-[4-chloro-2-(1-methyl-1H-pyrazol-5-yl)phenoxy]-N-(5-fluoropyridin-2-yl)benzenesulfonamide]

Continued, compound first:

SMILES | IC50
Cc1cc(S(=O)(=O)Nc2cscn2)ccc1Oc1ccccc1-c1ccnn1C [Example 628, 3-methyl-4-[2-(1-methyl-1H-pyrazol-5-yl)phenoxy]-N-1,3-thiazol-4-ylbenzenesulfonamide] | 1000 nM
Cc1nnc(-c2ccc(Oc3ccc(S(=O)(=O)Nc4ccc(F)cn4)cc3C#N)cc2)o1 [Example 576, 3-cyano-N-(5-fluoropyridin-2-yl)-4-[4-(5-methyl-1,3,4-oxadiazol-2-yl)phenoxy]benzenesulfonamide] | >3000 nM
N#Cc1cc(S(=O)(=O)Nc2ncc(Cl)cn2)ccc1Oc1ccccc1-c1ccccc1 [Example 430, 4-(biphenyl-2-yloxy)-N-(5-chloropyrimidin-2-yl)-3-cyanobenzenesulfonamide] | 12000 nM
N#Cc1cc(S(=O)(=O)Nc2ncns2)ccc1Oc1cc(F)c(Cl)cc1-c1ccn[nH]1 [Example 763, 4-[4-chloro-5-fluoro-2-(1H-pyrazol-5-yl)phenoxy]-3-cyano-N-1,2,4-thiadiazol-5-ylbenzenesulfonamide] | 34 nM
Cn1nccc1-c1cc(Cl)ccc1Oc1ccc(S(=O)(=O)Nc2ccc(C#N)cn2)cc1C#N [Example 466, 4-[4-chloro-2-(1-methyl-1H-pyrazol-5-yl)phenoxy]-3-cyano-N-(5-cyanopyridin-2-yl)benzenesulfonamide] | 36000 nM

Same assay, conditions: estimated IC50; hSCN9A HEK cells, PatchXpress platform; Examples 815-1040

IC50 | SMILES
1300 nM | CC(C)(C#N)c1ccc(Oc2cc(F)c(S(=O)(=O)Nc3nncs3)cc2Cl)c(-c2ccnnc2)c1 [Example 1021, 5-chloro-4-[4-(1-cyano-1-methylethyl)-2-pyridazin-4-ylphenoxy]-2-fluoro-N-1,3,4-thiadiazol-2-ylbenzenesulfonamide]
140 nM | Nc1cc(-c2cc(Cl)ccc2Oc2cc(F)c(S(=O)(=O)Nc3cnccn3)cc2Cl)ccn1 [Example 918, 4-[2-(2-aminopyridin-4-yl)-4-chlorophenoxy]-5-chloro-2-fluoro-N-pyrazin-2-ylbenzenesulfonamide]
5.8 nM | N#Cc1cc(S(=O)(=O)Nc2ncns2)ccc1Oc1ccc(OC(F)(F)F)cc1-c1ccnnc1 [Example 878, 3-cyano-4-[2-pyridazin-4-yl-4-(trifluoromethoxy)phenoxy]-N-1,2,4-thiadiazol-5-ylbenzenesulfonamide]
4.4 nM | Cc1[nH]ncc1-c1cc(Cl)ccc1Oc1ccc(S(=O)(=O)Nc2ncns2)cc1C#N [Example 865, 4-[4-chloro-2-(5-methyl-1H-pyrazol-4-yl)phenoxy]-3-cyano-N-1,2,4-thiadiazol-5-ylbenzenesulfonamide]
